# Measurements: patent US20130244296A1, “HALOGENATION ENZYMES” (priority 2011, published 2013)
# Read-outs that look alike come from different tables or passages of the source.
# Assays:
# [1] = system: heat shock protein 90 (Hsp90); details: general statement, no test described; cited from earlier work
# [2] = target: T1, Rdc2 halogenase (Metacordyceps chlamydosporia, UniProt B3FWT7, INS404VIQGSGSS/INS87YTDFIA/S88A); type: biochemical, P. chlamydosporia; details: three independent experiments
# T1 construct: 2 was concentrated and exchanged into Buffer A; His6 (N); made in house; host or cells: Escherichia coli BL21-CodonPlus (DE3)-RIL
# Protocol: Kinetic analysis of two chlorination steps of dihydroresorcylide (compound 3) by an Rdc2 halogenase of the present disclosure was carried out. Dihydroresorcylide (compound 3) was chosen as the substrate to study the kinetics of the Rdc2 halogenase. To measure the ka, and Km for the C-11 chlorination, a series of 100-μL reaction systems were set up containing 100 μM FAD, 10 mM NADH, 10 mM NaCl, 16 μM Fre, and 16 μM Rdc2 halogenase in 100 mM phosphate buffer (pH 7.0) with varying amount of compound 3 (0.17 to 1.71 mM) in each tube. All the reaction components and Fre were mixed thoroughly and maintained at 28° C. for 2 min. Rdc2 was then added to initiate the reaction. After 30 minutes, the reactions were quenched with 200 μL of MeOH, briefly vortexed, and centrifuged at 15,000 rpm for 5 minutes. Product formation was quantified on the HPLC at 315 nm based on the area of the peaks and standard curve of compound 3a. Reactions were run in triplicate and the steady-state parameters kcat and Km were determined by nonlinear fitting of Michaelis-Menten equation.
# For the second halogenations step, C-13 chlorination, the same method was used to determine kcat and Km except that 11-chlorodihydroresorcylide (compound 3a) was used as the substrate (0.03-0.18 mM).
# [3] = C-13 halogenation (chlorination), compound 3a as substrate
# T1 sequence (B3FWT7 other isoform, or with tags, fused parts or gaps INS87YTDFIA/S88A/INS404VIQGSGSS): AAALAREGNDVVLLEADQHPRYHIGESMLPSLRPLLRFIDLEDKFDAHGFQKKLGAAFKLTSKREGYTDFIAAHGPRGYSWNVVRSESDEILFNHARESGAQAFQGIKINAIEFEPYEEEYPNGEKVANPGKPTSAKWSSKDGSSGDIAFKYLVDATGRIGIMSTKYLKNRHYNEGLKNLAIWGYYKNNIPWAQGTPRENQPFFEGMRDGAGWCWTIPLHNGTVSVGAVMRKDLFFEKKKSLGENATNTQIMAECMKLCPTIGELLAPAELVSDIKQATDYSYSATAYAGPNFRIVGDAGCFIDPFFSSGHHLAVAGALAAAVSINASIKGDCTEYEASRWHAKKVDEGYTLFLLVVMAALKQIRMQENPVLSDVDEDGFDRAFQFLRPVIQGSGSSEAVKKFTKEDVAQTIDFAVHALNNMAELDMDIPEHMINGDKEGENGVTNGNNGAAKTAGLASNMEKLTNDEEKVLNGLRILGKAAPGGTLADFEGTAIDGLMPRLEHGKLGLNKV
smiles,measurement,setting,value
"C[C@@H]1C[C@H]2O[C@@H]2/C=C\C=C\C(=O)Cc2cc(O)cc(O)c2C(=O)O1 [Compound 1, monocillin I]",Hsp90 inhibition,[1],potent
"C[C@@H]1C[C@H]2O[C@@H]2/C=C\C=C\C(=O)Cc2c(Cl)c(O)cc(O)c2C(=O)O1 [Compound 1a, radicicol]",Hsp90 inhibition,[1],potent
"C[C@H]1CCCCCC(=O)Cc2cc(O)cc(O)c2C(=O)O1 [Compound 3, dihydroresorcylide]",Km,"[2]; C-11 halogenation (chlorination), compound 3 as substrate, 16 μM Fre, 16 μM Rdc2, pH 7.0, 28° C., 30 minutes",281 ± 20 µM
same,kcat,"[2]; C-11 halogenation (chlorination), compound 3 as substrate",0.0137 ± 0.000667 s⁻¹
"CC1CCCC(=O)CCCc2c(Cl)c(O)cc(O)c2C(=O)O1 (stereo not drawn) [Compound 3a, 11-chlorodihydroresorcylide]",Km,[2]; [3],846 ± 26 µM
same,kcat,[2]; [3],0.0016 ± 6.7e-05 s⁻¹
